Tests used:
[1] = target: Muscarinic acetylcholine receptor; test: In vitro binding affinity to the Muscarinic acetylcholine receptor by displacing [3H]-QNB from the rat heart tissues; assay type: protein assay
[2] = target: Muscarinic acetylcholine receptor; test: In vitro binding affinity to the Muscarinic acetylcholine receptor by displacing [3H]- Oxo-M from the rat brain tissues
[3] = target: Muscarinic acetylcholine receptor; test: In vitro binding affinity to the Muscarinic acetylcholine receptor by displacing [3H]PZ from the rat brain tissues
[4] = target: Muscarinic acetylcholine receptor; test: In vitro binding affinity to the Muscarinic acetylcholine receptor by displacing [3H]QNB from the rat brain tissues
[5] = target: Muscarinic acetylcholine receptor; test: In vitro binding affinity to the Muscarinic acetylcholine receptor by displacing [3H]OXO-M from the rat brain tissues
[6] = system: Muscarinic acetylcholine receptors (Rattus norvegicus); test: Relative efficacy and M1 selectivity by agonist index.
[7] = target: T1, Muscarinic acetylcholine receptor M1 (Homo sapiens, UniProt P11229); test: In Vitro evaluation activity at the cloned Human Muscarinic acetylcholine receptor M1 determined by receptor selection and amplification technology (R-SAT)
T1 sequence (P11229 whole entry): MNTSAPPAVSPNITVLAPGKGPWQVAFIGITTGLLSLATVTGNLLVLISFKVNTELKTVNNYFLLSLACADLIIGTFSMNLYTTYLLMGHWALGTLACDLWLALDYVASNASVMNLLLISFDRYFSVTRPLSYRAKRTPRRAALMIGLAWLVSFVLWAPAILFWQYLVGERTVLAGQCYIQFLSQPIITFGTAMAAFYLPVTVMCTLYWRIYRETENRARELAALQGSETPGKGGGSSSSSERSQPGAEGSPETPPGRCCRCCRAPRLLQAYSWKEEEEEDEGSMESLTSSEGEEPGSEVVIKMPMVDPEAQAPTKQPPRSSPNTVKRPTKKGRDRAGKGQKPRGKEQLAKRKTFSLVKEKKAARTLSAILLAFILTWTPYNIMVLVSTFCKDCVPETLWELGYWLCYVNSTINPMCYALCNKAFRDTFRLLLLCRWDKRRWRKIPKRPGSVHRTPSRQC

[8] = target: Muscarinic acetylcholine receptor M3 (Homo sapiens, UniProt P20309); test: In Vitro activity at the cloned Human Muscarinic acetylcholine receptor M3 determined by receptor selection and amplification technology (R-SAT)
[9] = target: T2, Muscarinic acetylcholine receptor M2 (Homo sapiens, UniProt P08172); test: In Vitro activity at the cloned Human Muscarinic acetylcholine receptor M2 determined by receptor selection and amplification technology (R-SAT).
T2 sequence (P08172 whole entry): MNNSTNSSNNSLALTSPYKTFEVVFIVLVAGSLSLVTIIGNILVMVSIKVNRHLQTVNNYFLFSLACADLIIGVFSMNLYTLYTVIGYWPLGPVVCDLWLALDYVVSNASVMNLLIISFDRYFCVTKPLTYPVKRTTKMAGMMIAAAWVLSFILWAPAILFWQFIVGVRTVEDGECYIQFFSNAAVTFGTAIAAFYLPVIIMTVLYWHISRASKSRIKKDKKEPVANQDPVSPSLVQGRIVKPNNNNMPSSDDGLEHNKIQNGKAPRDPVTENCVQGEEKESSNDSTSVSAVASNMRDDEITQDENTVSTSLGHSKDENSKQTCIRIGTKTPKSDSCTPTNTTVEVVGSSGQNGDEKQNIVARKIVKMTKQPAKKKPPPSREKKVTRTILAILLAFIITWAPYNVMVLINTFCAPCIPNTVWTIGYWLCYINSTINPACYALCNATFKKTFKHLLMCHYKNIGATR

[10] = target: T3, Muscarinic acetylcholine receptor M4 (Homo sapiens, UniProt P08173); test: In Vitro activity at the cloned Human Muscarinic acetylcholine receptor M4 determined by receptor selection and amplification technology (R-SAT)
T3 sequence (P08173 whole entry): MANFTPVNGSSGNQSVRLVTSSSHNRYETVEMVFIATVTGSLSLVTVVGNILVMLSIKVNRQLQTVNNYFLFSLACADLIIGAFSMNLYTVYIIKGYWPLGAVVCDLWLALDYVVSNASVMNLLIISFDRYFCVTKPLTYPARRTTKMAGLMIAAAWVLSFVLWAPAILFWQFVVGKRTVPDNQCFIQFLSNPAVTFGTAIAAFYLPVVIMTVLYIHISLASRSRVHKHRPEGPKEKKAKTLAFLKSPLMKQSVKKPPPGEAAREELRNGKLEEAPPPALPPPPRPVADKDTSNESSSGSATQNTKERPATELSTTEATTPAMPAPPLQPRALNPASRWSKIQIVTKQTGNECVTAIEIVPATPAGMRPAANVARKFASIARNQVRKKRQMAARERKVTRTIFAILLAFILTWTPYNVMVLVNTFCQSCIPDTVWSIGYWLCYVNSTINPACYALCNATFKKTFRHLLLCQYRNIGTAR

[11] = target: T4, Muscarinic acetylcholine receptor M5 (Homo sapiens, UniProt P08912); test: In Vitro activity at the cloned Human Muscarinic acetylcholine receptor M5 determined by receptor selection and amplification technology (R-SAT)
T4 sequence (P08912 whole entry): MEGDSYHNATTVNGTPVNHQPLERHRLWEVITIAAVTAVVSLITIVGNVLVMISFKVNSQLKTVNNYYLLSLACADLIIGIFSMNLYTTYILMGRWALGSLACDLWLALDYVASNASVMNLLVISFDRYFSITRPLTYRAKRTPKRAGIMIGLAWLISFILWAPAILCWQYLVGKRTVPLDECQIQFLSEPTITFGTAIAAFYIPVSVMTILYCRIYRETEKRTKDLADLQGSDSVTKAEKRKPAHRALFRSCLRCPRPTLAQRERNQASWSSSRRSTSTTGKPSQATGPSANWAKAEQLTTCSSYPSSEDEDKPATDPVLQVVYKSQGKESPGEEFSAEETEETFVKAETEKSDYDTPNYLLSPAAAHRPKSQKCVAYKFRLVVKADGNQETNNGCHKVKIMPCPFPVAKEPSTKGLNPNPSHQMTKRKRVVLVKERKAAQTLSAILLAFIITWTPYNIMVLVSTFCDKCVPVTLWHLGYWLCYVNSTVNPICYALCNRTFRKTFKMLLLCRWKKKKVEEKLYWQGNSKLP

Sequence of Muscarinic acetylcholine receptor M3 (P20309 whole entry): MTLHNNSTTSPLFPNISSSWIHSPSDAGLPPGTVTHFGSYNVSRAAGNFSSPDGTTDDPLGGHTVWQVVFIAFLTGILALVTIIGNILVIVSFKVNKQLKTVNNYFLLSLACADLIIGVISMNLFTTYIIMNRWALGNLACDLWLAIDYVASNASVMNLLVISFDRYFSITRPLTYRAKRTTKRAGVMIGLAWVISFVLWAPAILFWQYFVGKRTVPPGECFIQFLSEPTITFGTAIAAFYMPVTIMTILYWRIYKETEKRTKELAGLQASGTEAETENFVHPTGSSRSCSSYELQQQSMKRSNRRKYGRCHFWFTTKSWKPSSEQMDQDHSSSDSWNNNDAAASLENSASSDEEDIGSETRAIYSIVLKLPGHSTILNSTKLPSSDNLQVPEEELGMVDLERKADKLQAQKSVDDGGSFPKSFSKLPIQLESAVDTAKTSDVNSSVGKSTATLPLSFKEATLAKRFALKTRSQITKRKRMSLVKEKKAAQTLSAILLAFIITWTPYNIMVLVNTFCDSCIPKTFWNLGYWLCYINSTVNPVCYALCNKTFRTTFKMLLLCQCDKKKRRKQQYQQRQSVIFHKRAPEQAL

Structure (SMILES)	IC50 [1]	IC50 [2]	IC50 [3]	IC50 [4]	IC50 [5]	Agonist index [6]	EC50 [7]	EC50 [8]	EC50 [9]	EC50 [10]	EC50 [11]
O=C1CCCN1CC#CCN1CCCC1 [OXOTREMORINE]	84 nM	1.2 nM	93 nM	2300 nM							
CC(C)Oc1noc2c1CNCCC2	360 nM		13 nM	370 nM	11 nM	5.4					
COc1noc2c1CNCCC2	350 nM		390 nM	6400 nM	10 nM	104	460 nM	620 nM	43 nM	240 nM	4700 nM
C#CCOc1noc2c1CNCCC2	82 nM		23 nM	480 nM	0.75 nM	104	140 nM	130 nM	6.7 nM	30 nM	950 nM
CCOc1noc2c1CNCCC2	140 nM		18 nM	530 nM	3.4 nM	25	95 nM	500 nM	41 nM	67 nM	
